# Columns and labels:
# Type in all cases: cell-based, human
# HCC827GR cells = assay: Multi-caspase assay, HCC827GR; parameters: Caspase+ cells / Total Caspase+ cells / dead cells (multi-caspase assay) / Live cells (multi-caspase assay): unit not given here; conditions: for cells with activated caspases: 48 h, background 6.43 %; for Caspase+ cells / Caspase+/dead cells / Live cells (multi-caspase assay) / Total Caspase+ cells / dead cells (multi-caspase assay): HCC827GR
# Experimental: (§1) HaCaT cells were grown in DMEM, whereas HCC827 and HCC827GR cells were grown in RPMI 1640. All culture media were supplemented with FBS (10 %) and P/S (1 %), and the cells were grown at 37 °C in 5 % CO2.
# PARP = assay: Immunoblot PARP with NAC pretreatment, HCC827 and HCC827GR cells; conditions: for PARP protein Ratio: control = 1.00
# Experimental: as §1
# (§2) Cells were lysed in RIPA buffer, and protein concentration was determined using a Bio-Rad DC Protein Assay kit (Bio-Rad, Hercules, CA, USA). Protein samples from the cell lysates were resolved by sodium dodecyl sulfate-polyacrylamide gel electrophoresis and then transferred onto polyvinylidene fluoride membranes. The membranes were blocked with 3 % or 5 % skim milk and then incubated at 4 °C overnight with the indicated primary antibodies, followed by the corresponding horseradish peroxidase-conjugated secondary antibodies at RT for 2 h. Protein bands were visualized using western blotting luminol reagent solution and ImageQuant LAS 500 (GE Healthcare, Uppsala, Sweden). The density of the bands was quantified using ImageJ software (NIH, Bethesda, MD, USA).
# Bim = assay: Immunoblot Bim in HCC827 and HCC827GR cells; conditions: for Bim protein Ratio: DBG 0 nM 0.47
# Experimental: as §1, §2
# caspase-3 = assay: Immunoblot caspase-3 with NAC pretreatment, HCC827 and HCC827GR cells; conditions: for caspase3 protein Ratio: control = 1.00
# Experimental: as §1, §2
# Bad = assay: Immunoblot Bad in HCC827 and HCC827GR cells
# Experimental: as §1, §2
compound,measurement,setting,value
"COc1ccc(C[C@H]2C(=O)N[C@@H](C)C(=O)N(C)[C@H]3Cc4ccc(cc4)Oc4cc(ccc4O[C@@H]4O[C@H](CO)[C@@H](O)[C@H](O)[C@H]4O)C[C@@H](C(=O)N[C@H](C)C(=O)N[C@@H](C)C(=O)N2C)N(C)C3=O)cc1 [DBG, deoxybouvardin glucoside]",cells with activated caspases,HCC827GR cells; DBG 3 nM,23.91%
same,cells with activated caspases,HCC827GR cells; DBG 6 nM,31.13%
same,cells with activated caspases,HCC827GR cells; DBG 12 nM,33.34%
same,Caspase+ cells,"HCC827GR cells; DBG 3 nM, mean of samples 1-3",8.71
same,Caspase+/dead cells,"HCC827GR cells; DBG 3 nM, mean of samples 1-3",15.20
same,Live cells (multi-caspase assay),"HCC827GR cells; DBG 3 nM, mean of samples 1-3",74.50
same,Total Caspase+ cells,"HCC827GR cells; DBG 3 nM, mean of samples 1-3",23.91
same,dead cells (multi-caspase assay),"HCC827GR cells; DBG 3 nM, mean of samples 1-3",1.60
same,Caspase+ cells,"HCC827GR cells; DBG 3 nM, sample 1",8.78
same,Caspase+/dead cells,"HCC827GR cells; DBG 3 nM, sample 1",15.95
same,Live cells (multi-caspase assay),"HCC827GR cells; DBG 3 nM, sample 1",73.93
same,Total Caspase+ cells,"HCC827GR cells; DBG 3 nM, sample 1",24.73
same,dead cells (multi-caspase assay),"HCC827GR cells; DBG 3 nM, sample 1",1.34
same,Caspase+ cells,"HCC827GR cells; DBG 3 nM, sample 2",8.19
same,Caspase+/dead cells,"HCC827GR cells; DBG 3 nM, sample 2",14.57
same,Live cells (multi-caspase assay),"HCC827GR cells; DBG 3 nM, sample 2",75.49
same,Total Caspase+ cells,"HCC827GR cells; DBG 3 nM, sample 2",22.76
same,dead cells (multi-caspase assay),"HCC827GR cells; DBG 3 nM, sample 2",1.75
same,Caspase+ cells,"HCC827GR cells; DBG 3 nM, sample 3",9.16
same,Caspase+/dead cells,"HCC827GR cells; DBG 3 nM, sample 3",15.07
same,Live cells (multi-caspase assay),"HCC827GR cells; DBG 3 nM, sample 3",74.07
same,Total Caspase+ cells,"HCC827GR cells; DBG 3 nM, sample 3",24.23
same,dead cells (multi-caspase assay),"HCC827GR cells; DBG 3 nM, sample 3",1.70
same,Caspase+ cells,"HCC827GR cells; DBG 6 nM, mean of samples 1-3",7.98
same,Caspase+/dead cells,"HCC827GR cells; DBG 6 nM, mean of samples 1-3",23.15
same,Live cells (multi-caspase assay),"HCC827GR cells; DBG 6 nM, mean of samples 1-3",67.79
same,Total Caspase+ cells,"HCC827GR cells; DBG 6 nM, mean of samples 1-3",31.13
same,dead cells (multi-caspase assay),"HCC827GR cells; DBG 6 nM, mean of samples 1-3",1.08
same,Caspase+ cells,"HCC827GR cells; DBG 6 nM, sample 1",7.79
same,Caspase+/dead cells,"HCC827GR cells; DBG 6 nM, sample 1",23.36
same,Live cells (multi-caspase assay),"HCC827GR cells; DBG 6 nM, sample 1",67.58
same,Total Caspase+ cells,"HCC827GR cells; DBG 6 nM, sample 1",31.15
same,dead cells (multi-caspase assay),"HCC827GR cells; DBG 6 nM, sample 1",1.27
same,Caspase+ cells,"HCC827GR cells; DBG 6 nM, sample 2",7.88
same,Caspase+/dead cells,"HCC827GR cells; DBG 6 nM, sample 2",23.02
same,Live cells (multi-caspase assay),"HCC827GR cells; DBG 6 nM, sample 2",67.97
same,Total Caspase+ cells,"HCC827GR cells; DBG 6 nM, sample 2",30.90
same,dead cells (multi-caspase assay),"HCC827GR cells; DBG 6 nM, sample 2",1.13
same,Caspase+ cells,"HCC827GR cells; DBG 6 nM, sample 3",8.26
same,Caspase+/dead cells,"HCC827GR cells; DBG 6 nM, sample 3",23.08
same,Live cells (multi-caspase assay),"HCC827GR cells; DBG 6 nM, sample 3",67.82
same,Total Caspase+ cells,"HCC827GR cells; DBG 6 nM, sample 3",31.34
same,dead cells (multi-caspase assay),"HCC827GR cells; DBG 6 nM, sample 3",0.83
same,Caspase+ cells,"HCC827GR cells; DBG 12 nM, mean of samples 1-3",9.57
same,Caspase+/dead cells,"HCC827GR cells; DBG 12 nM, mean of samples 1-3",23.77
same,Live cells (multi-caspase assay),"HCC827GR cells; DBG 12 nM, mean of samples 1-3",66.05
same,Total Caspase+ cells,"HCC827GR cells; DBG 12 nM, mean of samples 1-3",33.34
same,dead cells (multi-caspase assay),"HCC827GR cells; DBG 12 nM, mean of samples 1-3",0.61
same,Caspase+ cells,"HCC827GR cells; DBG 12 nM, sample 1",11.11
same,Caspase+/dead cells,"HCC827GR cells; DBG 12 nM, sample 1",21.58
same,Live cells (multi-caspase assay),"HCC827GR cells; DBG 12 nM, sample 1",67.07
same,Total Caspase+ cells,"HCC827GR cells; DBG 12 nM, sample 1",32.69
same,dead cells (multi-caspase assay),"HCC827GR cells; DBG 12 nM, sample 1",0.24
same,Caspase+ cells,"HCC827GR cells; DBG 12 nM, sample 2",10.36
same,Caspase+/dead cells,"HCC827GR cells; DBG 12 nM, sample 2",24.35
same,Live cells (multi-caspase assay),"HCC827GR cells; DBG 12 nM, sample 2",65.05
same,Total Caspase+ cells,"HCC827GR cells; DBG 12 nM, sample 2",34.70
same,dead cells (multi-caspase assay),"HCC827GR cells; DBG 12 nM, sample 2",0.24
same,Caspase+ cells,"HCC827GR cells; DBG 12 nM, sample 3",7.24
same,Caspase+/dead cells,"HCC827GR cells; DBG 12 nM, sample 3",25.38
same,Live cells (multi-caspase assay),"HCC827GR cells; DBG 12 nM, sample 3",66.02
same,Total Caspase+ cells,"HCC827GR cells; DBG 12 nM, sample 3",32.62
same,dead cells (multi-caspase assay),"HCC827GR cells; DBG 12 nM, sample 3",1.36
same,PARP protein/actin,"PARP; HCC827, DBG 12 nM, control 0.96",0.09
same,PARP protein Ratio,"PARP; HCC827, DBG 12 nM",0.09
same,PARP protein/actin,"PARP; HCC827, NAC 4 mM + DBG 12 nM, control 0.96",1.09
same,PARP protein Ratio,"PARP; HCC827, NAC 4 mM + DBG 12 nM",1.14
same,PARP protein/actin,"PARP; HCC827GR, DBG 12 nM, control 0.99",0.21
same,PARP protein Ratio,"PARP; HCC827GR, DBG 12 nM",0.22
same,PARP protein/actin,"PARP; HCC827GR, NAC 4 mM + DBG 12 nM, control 0.99",0.81
same,PARP protein Ratio,"PARP; HCC827GR, NAC 4 mM + DBG 12 nM",0.82
same,Bim protein/actin,"Bim; HCC827, DBG 3 nM, DBG 0 nM 0.53",0.53
same,Bim protein Ratio,"Bim; HCC827, DBG 3 nM, relative to DBG 12 nM = 1.00",0.48
same,Bim protein/actin,"Bim; HCC827, DBG 6 nM, DBG 0 nM 0.53",0.73
same,Bim protein Ratio,"Bim; HCC827, DBG 6 nM, relative to DBG 12 nM = 1.00",0.65
same,Bim protein Ratio,"Bim; HCC827, DBG 12 nM (reference of the ratio, 1.00)",1.00
same,Bim protein/actin,"Bim; HCC827, DBG 12 nM, DBG 0 nM 0.53",1.12
same,Bim protein/actin,"Bim; HCC827GR, DBG 3 nM, DBG 0 nM 0.15",0.23
same,level of Bim,"Bim; NSCLC cells, DBG",increased
same,caspase3 protein/actin,"caspase-3; HCC827, DBG 12 nM, control 0.39",0.07
same,caspase3 protein Ratio,"caspase-3; HCC827, DBG 12 nM",0.18
same,caspase3 protein/actin,"caspase-3; HCC827, NAC 4 mM + DBG 12 nM, control 0.39",0.60
same,caspase3 protein Ratio,"caspase-3; HCC827, NAC 4 mM + DBG 12 nM",1.53
same,caspase3 protein/actin,"caspase-3; HCC827GR, DBG 12 nM, control 0.59",0.24
same,caspase3 protein Ratio,"caspase-3; HCC827GR, DBG 12 nM",0.41
same,caspase3 protein/actin,"caspase-3; HCC827GR, NAC 4 mM + DBG 12 nM, control 0.59",0.45
same,caspase3 protein Ratio,"caspase-3; HCC827GR, NAC 4 mM + DBG 12 nM",0.77
same,Bad protein/actin,"Bad; HCC827, DBG 3 nM, DBG 0 nM 0.16",0.25
same,Bad protein Ratio,"Bad; HCC827, DBG 3 nM, relative to DBG 12 nM = 1.00, DBG 0 nM 0.19",0.31
same,Bad protein/actin,"Bad; HCC827, DBG 6 nM, DBG 0 nM 0.16",0.69
same,Bad protein Ratio,"Bad; HCC827, DBG 6 nM, relative to DBG 12 nM = 1.00, DBG 0 nM 0.19",0.84
same,Bad protein Ratio,"Bad; HCC827, DBG 12 nM (reference of the ratio, 1.00), DBG 0 nM 0.19",1.00
same,Bad protein/actin,"Bad; HCC827, DBG 12 nM, DBG 0 nM 0.16",0.82
same,Bad protein/actin,"Bad; HCC827GR, DBG 3 nM, DBG 0 nM 0.28",0.22
same,Bad protein Ratio,"Bad; HCC827GR, DBG 3 nM, relative to DBG 12 nM = 1.00, DBG 0 nM 0.49",0.39
same,Bad protein/actin,"Bad; HCC827GR, DBG 6 nM, DBG 0 nM 0.28",0.59
same,Bad protein Ratio,"Bad; HCC827GR, DBG 6 nM, relative to DBG 12 nM = 1.00, DBG 0 nM 0.49",1.03
same,Bad protein Ratio,"Bad; HCC827GR, DBG 12 nM (reference of the ratio, 1.00), DBG 0 nM 0.49",1.00
same,Bad protein/actin,"Bad; HCC827GR, DBG 12 nM, DBG 0 nM 0.28",0.57
same,level of Bad,"Bad; NSCLC cells, DBG",increased
